# Tested on: yeast genes (expressed mRNA)
# Assay: DNA chip measurement of expressed mRNA of yeast genes after culture with a toxic chemical substance
# Format: cell-based, Saccharomyces cerevisiae S288C
# Method in brief: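 Fluorescence ratio, treated over untreated, read by chip scanner; ratio of two or more counted significant. Cells: S288C yeast, YPD, 25° C, chemical added at log phase for 2 h at growth-inhibiting, sublethal level. Cy3/Cy5-labeled cDNA from oligo-dT-purified mRNA.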
smiles,measurement,setting,value
"S=C([S-])NCCNC(=S)[S-].[Zn+2] [(11), Zinc N,N′-ethylenebis(dithiocarbamate)]",The level of expressed mRNA in the presence of chemical substance/The level of expressed mRNA in the absence of chemical substance,"yeast gene YKL086W, cultured two hours with substance",0.7
same,The level of expressed mRNA in the presence of chemical substance/The level of expressed mRNA in the absence of chemical substance,"yeast gene YKL151C, cultured two hours with substance",2.3
same,The level of expressed mRNA in the presence of chemical substance/The level of expressed mRNA in the absence of chemical substance,"yeast gene YKL153W, cultured two hours with substance",2.1
same,The level of expressed mRNA in the presence of chemical substance/The level of expressed mRNA in the absence of chemical substance,"yeast gene YKL195W, cultured two hours with substance",1.0
same,The level of expressed mRNA in the presence of chemical substance/The level of expressed mRNA in the absence of chemical substance,yeast gene YKR076W,18.6
same,The level of expressed mRNA in the presence of chemical substance/The level of expressed mRNA in the absence of chemical substance,"yeast gene YKR091W, cultured two hours with substance",1.1
same,The level of expressed mRNA in the presence of chemical substance/The level of expressed mRNA in the absence of chemical substance,yeast gene YLL060C (detoxification protein gene),14.1
same,The level of expressed mRNA in the presence of chemical substance/The level of expressed mRNA in the absence of chemical substance,yeast gene YLL060C (stress protein genes),14.1
same,The level of expressed mRNA in the presence of chemical substance/The level of expressed mRNA in the absence of chemical substance,"yeast gene YLR031W, cultured two hours with substance",0.7
same,The level of expressed mRNA in the presence of chemical substance/The level of expressed mRNA in the absence of chemical substance,"yeast gene YLR054C, cultured two hours with substance",0.7
same,The level of expressed mRNA in the presence of chemical substance/The level of expressed mRNA in the absence of chemical substance,yeast gene YLR142W,3.8
same,The level of expressed mRNA in the presence of chemical substance/The level of expressed mRNA in the absence of chemical substance,"yeast gene YLR149C, cultured two hours with substance",2.8
same,The level of expressed mRNA in the presence of chemical substance/The level of expressed mRNA in the absence of chemical substance,"yeast gene YLR152C, cultured two hours with substance",3.6
same,The level of expressed mRNA in the presence of chemical substance/The level of expressed mRNA in the absence of chemical substance,"yeast gene YLR194C, cultured two hours with substance",1.4
same,The level of expressed mRNA in the presence of chemical substance/The level of expressed mRNA in the absence of chemical substance,"yeast gene YLR205C, cultured two hours with substance",0.4
same,The level of expressed mRNA in the presence of chemical substance/The level of expressed mRNA in the absence of chemical substance,"yeast gene YLR297W, cultured two hours with substance",3.5
same,The level of expressed mRNA in the presence of chemical substance/The level of expressed mRNA in the absence of chemical substance,"yeast gene YLR324W, cultured two hours with substance",0.9
same,The level of expressed mRNA in the presence of chemical substance/The level of expressed mRNA in the absence of chemical substance,"yeast gene YLR346C, cultured two hours with substance",0.5
same,The level of expressed mRNA in the presence of chemical substance/The level of expressed mRNA in the absence of chemical substance,"yeast gene YLR350W, cultured two hours with substance",0.9
same,The level of expressed mRNA in the presence of chemical substance/The level of expressed mRNA in the absence of chemical substance,"yeast gene YLR387C, cultured two hours with substance",0.9
same,The level of expressed mRNA in the presence of chemical substance/The level of expressed mRNA in the absence of chemical substance,"yeast gene YLR460C, cultured two hours with substance",14.3
same,The level of expressed mRNA in the presence of chemical substance/The level of expressed mRNA in the absence of chemical substance,"yeast gene YML117W, cultured two hours with substance",0.8
same,The level of expressed mRNA in the presence of chemical substance/The level of expressed mRNA in the absence of chemical substance,yeast gene YML131W,14.4
same,The level of expressed mRNA in the presence of chemical substance/The level of expressed mRNA in the absence of chemical substance,"yeast gene YMR009W, cultured two hours with substance",2.1
same,The level of expressed mRNA in the presence of chemical substance/The level of expressed mRNA in the absence of chemical substance,"yeast gene YMR067C, cultured two hours with substance",1.1
same,The level of expressed mRNA in the presence of chemical substance/The level of expressed mRNA in the absence of chemical substance,"yeast gene YMR090W, cultured two hours with substance",8.8
same,The level of expressed mRNA in the presence of chemical substance/The level of expressed mRNA in the absence of chemical substance,"yeast gene YMR095C, cultured two hours with substance",2.1
same,The level of expressed mRNA in the presence of chemical substance/The level of expressed mRNA in the absence of chemical substance,"yeast gene YMR097C, cultured two hours with substance",1.5
same,The level of expressed mRNA in the presence of chemical substance/The level of expressed mRNA in the absence of chemical substance,"yeast gene YMR102C, cultured two hours with substance",1.5
same,The level of expressed mRNA in the presence of chemical substance/The level of expressed mRNA in the absence of chemical substance,"yeast gene YMR107W, cultured two hours with substance",3.0
same,The level of expressed mRNA in the presence of chemical substance/The level of expressed mRNA in the absence of chemical substance,"yeast gene YMR140W, cultured two hours with substance",0.7
same,The level of expressed mRNA in the presence of chemical substance/The level of expressed mRNA in the absence of chemical substance,"yeast gene YMR180C, cultured two hours with substance",0.7
same,The level of expressed mRNA in the presence of chemical substance/The level of expressed mRNA in the absence of chemical substance,"yeast gene YMR184W, cultured two hours with substance",1.5
same,The level of expressed mRNA in the presence of chemical substance/The level of expressed mRNA in the absence of chemical substance,"yeast gene YMR191W, cultured two hours with substance",2.3
same,The level of expressed mRNA in the presence of chemical substance/The level of expressed mRNA in the absence of chemical substance,"yeast gene YMR195W, cultured two hours with substance",1.1
same,The level of expressed mRNA in the presence of chemical substance/The level of expressed mRNA in the absence of chemical substance,"yeast gene YMR295C, cultured two hours with substance",1.2
same,The level of expressed mRNA in the presence of chemical substance/The level of expressed mRNA in the absence of chemical substance,"yeast gene YMR316W, cultured two hours with substance",1.5
same,The level of expressed mRNA in the presence of chemical substance/The level of expressed mRNA in the absence of chemical substance,"yeast gene YNL044W, cultured two hours with substance",1.1
same,The level of expressed mRNA in the presence of chemical substance/The level of expressed mRNA in the absence of chemical substance,"yeast gene YNL074C, cultured two hours with substance",1.3
same,The level of expressed mRNA in the presence of chemical substance/The level of expressed mRNA in the absence of chemical substance,"yeast gene YNL092W, cultured two hours with substance",0.7
same,The level of expressed mRNA in the presence of chemical substance/The level of expressed mRNA in the absence of chemical substance,"yeast gene YNL115C, cultured two hours with substance",1.1
same,The level of expressed mRNA in the presence of chemical substance/The level of expressed mRNA in the absence of chemical substance,"yeast gene YNL134C, cultured two hours with substance",5.0
same,The level of expressed mRNA in the presence of chemical substance/The level of expressed mRNA in the absence of chemical substance,"yeast gene YNL156C, cultured two hours with substance",1.4
same,The level of expressed mRNA in the presence of chemical substance/The level of expressed mRNA in the absence of chemical substance,"yeast gene YNL190W, cultured two hours with substance",1.0
same,level of expressed mRNA in the presence of chemical substance / level in the absence of chemical substance,"yeast gene YNL194C, cultured two hours with the chemical substance",17.1
same,The level of expressed mRNA in the presence of chemical substance/The level of expressed mRNA in the absence of chemical substance,"yeast gene YNL195C, cultured two hours with the chemical substance",2.9
same,The level of expressed mRNA in the presence of chemical substance/The level of expressed mRNA in the absence of chemical substance,"yeast gene YNL208W, cultured two hours with substance",2.5
same,The level of expressed mRNA in the presence of chemical substance/The level of expressed mRNA in the absence of chemical substance,"yeast gene YNL234W, cultured two hours with substance",1.3
same,The level of expressed mRNA in the presence of chemical substance/The level of expressed mRNA in the absence of chemical substance,"yeast gene YNL241C, cultured for two hours with substance",3.0
same,The level of expressed mRNA in the presence of chemical substance/The level of expressed mRNA in the absence of chemical substance,"yeast gene YNL281W, cultured two hours with substance",1.6
same,The level of expressed mRNA in the presence of chemical substance/The level of expressed mRNA in the absence of chemical substance,"yeast gene YNL300W, cultured two hours with substance",0.9
same,The level of expressed mRNA in the presence of chemical substance/The level of expressed mRNA in the absence of chemical substance,"yeast gene YNL305C, cultured two hours with substance",1.8
same,The level of expressed mRNA in the presence of chemical substance/The level of expressed mRNA in the absence of chemical substance,"yeast gene YNR064C, cultured two hours with substance",0.7
same,The level of expressed mRNA in the presence of chemical substance/The level of expressed mRNA in the absence of chemical substance,"yeast gene YNR068C, cultured two hours with substance",1.1
same,The level of expressed mRNA in the presence of chemical substance/The level of expressed mRNA in the absence of chemical substance,"yeast gene YOL032W, cultured two hours with substance",1.4
same,The level of expressed mRNA in the presence of chemical substance/The level of expressed mRNA in the absence of chemical substance,"yeast gene YOL036W, cultured two hours with substance",2.2
same,The level of expressed mRNA in the presence of chemical substance/The level of expressed mRNA in the absence of chemical substance,"yeast gene YOL047C, cultured two hours with substance",0.9
same,The level of expressed mRNA in the presence of chemical substance/The level of expressed mRNA in the absence of chemical substance,"yeast gene YOL071W, cultured two hours with substance",4.3
same,The level of expressed mRNA in the presence of chemical substance/The level of expressed mRNA in the absence of chemical substance,"yeast gene YOL082W, cultured two hours with substance",1.6
same,The level of expressed mRNA in the presence of chemical substance/The level of expressed mRNA in the absence of chemical substance,"yeast gene YOL083W, cultured two hours with substance",1.3
same,The level of expressed mRNA in the presence of chemical substance/The level of expressed mRNA in the absence of chemical substance,"yeast gene YOL117W, cultured two hours with substance",1.0
same,The level of expressed mRNA in the presence of chemical substance/The level of expressed mRNA in the absence of chemical substance,"yeast gene YOL131W, cultured two hours with substance",1.4
same,The level of expressed mRNA in the presence of chemical substance/The level of expressed mRNA in the absence of chemical substance,"yeast gene YOL150C, cultured two hours with substance",9.4
same,The level of expressed mRNA in the presence of chemical substance/The level of expressed mRNA in the absence of chemical substance,yeast gene YOL152W,5.9
same,The level of expressed mRNA in the presence of chemical substance/The level of expressed mRNA in the absence of chemical substance,"yeast gene YOL162W, cultured two hours with substance",4.3
same,The level of expressed mRNA in the presence of chemical substance/The level of expressed mRNA in the absence of chemical substance,"yeast gene YOR019W, cultured two hours with substance",1.7
same,The level of expressed mRNA in the presence of chemical substance/The level of expressed mRNA in the absence of chemical substance,"yeast gene YOR178C, cultured two hours with the chemical substance",4.1
same,The level of expressed mRNA in the presence of chemical substance/The level of expressed mRNA in the absence of chemical substance,"yeast gene YOR197W, cultured two hours with substance",1.0
same,The level of expressed mRNA in the presence of chemical substance/The level of expressed mRNA in the absence of chemical substance,"yeast gene YOR215C, cultured two hours with substance",1.6
same,The level of expressed mRNA in the presence of chemical substance/The level of expressed mRNA in the absence of chemical substance,"yeast gene YOR225W, cultured two hours with substance",1.2
same,The level of expressed mRNA in the presence of chemical substance/The level of expressed mRNA in the absence of chemical substance,"yeast gene YOR248W, cultured two hours with substance",2.3
same,The level of expressed mRNA in the presence of chemical substance/The level of expressed mRNA in the absence of chemical substance,"yeast gene YOR382W, cultured two hours with substance",2.5
same,The level of expressed mRNA in the presence of chemical substance/The level of expressed mRNA in the absence of chemical substance,"yeast gene YPL052W, cultured two hours with substance",1.2
same,The level of expressed mRNA in the presence of chemical substance/The level of expressed mRNA in the absence of chemical substance,"yeast gene YPL087W, cultured two hours with substance",2.5
same,The level of expressed mRNA in the presence of chemical substance/The level of expressed mRNA in the absence of chemical substance,"yeast gene YPL171C, cultured for two hours with substance",37.0
same,The level of expressed mRNA in the presence of chemical substance/The level of expressed mRNA in the absence of chemical substance,"yeast gene YPL196W, cultured two hours with substance",1.7
same,The level of expressed mRNA in the presence of chemical substance/The level of expressed mRNA in the absence of chemical substance,"yeast gene YPL206C, cultured two hours with substance",1.5
same,The level of expressed mRNA in the presence of chemical substance/The level of expressed mRNA in the absence of chemical substance,"yeast gene YPL222W, cultured two hours with substance",1.2
same,The level of expressed mRNA in the presence of chemical substance/The level of expressed mRNA in the absence of chemical substance,"yeast gene YPR023C, cultured two hours with substance",1.7
same,The level of expressed mRNA in the presence of chemical substance/The level of expressed mRNA in the absence of chemical substance,"yeast gene YPR079W, cultured two hours with substance",0.8
same,The level of expressed mRNA in the presence of chemical substance/The level of expressed mRNA in the absence of chemical substance,"yeast gene YPR151C, cultured two hours with substance",1.4
